Where “and” joins values, the source holds several entries; their conditions need not be identical. Equal values may be shown once.
System: ischemia reperfusion injury (IRI) model
Experiment: Unilateral IRI model: collagen area fraction of kidney tissue
Assay type: in vivo, mouse
Procedure: A model of ischemia reperfusion injury (IRI) is created in the mouse through unilateral or bilateral clamping of kidney arteries, which leads to tubule damage, inflammation, and fibrosis. Kidney dysfunction can occur either early (<5 days) or late (>7 days) in this model, with the early time points useful to test candidate agents for the treatment of acute kidney injury, and the later time points useful to model chronic fibrosis.
Anti-miR-21 compounds were tested in the unilateral IRI model. Unilateral IRI was induced for a period of 30 minutes. Treatment groups were as follows: sham IRI procedure; IRI with PBS administered subcutaneously; IRI with anti-miR-21 compound 25070 administered intraperitoneally at a dose of 20 mg/kg; the 2′-fluoro/2′-MOE modified anti-miR-21 25919 administered intraperitoneally at a dose of 20 mg/kg; and a 2′-fluoro/2′ modified mismatch anti-miR-21 (having three mismatches to the sequence of miR-21) 25319 administered intraperitoneally at a dose of 20 mg/kg. PBS or anti-miR compound was administered on days 5, 6, and 7 following IRI, and animals were sacrificed 14 days after IRI. As anti-miR compound is administered 5 days following the injury to the kidney, or later, when fibrosis has already occurred to some extent, this treatment regimen is considered a therapeutic regimen, rather than a prophylactic regimen.
Kidney tissue was collected for analysis of collagen 1A1 and collagen 3A1 expression (shown in Table O), and collagen area fraction (shown in Table P).
A similar study was performed with the same treatment groups and additional days of treatment. In this study, treatments were administered intraperitoneally at days 5, 6, 7, 14, and 21 following the IRI procedure Animals were sacrificed on Day 27, and kidney tissue was collected for analysis of collagen 1A1 and collagen 3A1 expression, as well as collagen area fraction.

In the case of “AECSATCSAGTCSTGAUSAAGCSTAE (ACATCAGTCTGATAAGCTA; modified nucleosides coded in name, code key not given here) [Compound 25070]”, the “Collagen Area Fraction (#), individual animal” value (20 mg/kg intraperitoneally on days 5, 6, 7, sacrifice 14 days after IRI, 20 mg/kg) is reported as 10.266 and 11.772 and 10.267 and 8.404 and 7.862 and 6.975 and 8.381 and 13.773, the “Collagen Area Fraction (#), Mean” value (20 mg/kg intraperitoneally on days 5, 6, 7, sacrifice 14 days after IRI, group mean) is reported as 9.7 and the “reduction in collagen area fraction (in words)” value (i.p. 20 mg/kg on days 5, 6, 7, sacrificed 14 days after IRI) is reported as “statistically significant reduction”. The “reduction in collagen area fraction (in words)” value (i.p. on days 5, 6, 7, 14, 21, sacrificed Day 27) was “statistically significant reduction” and the “Collagen Area Fraction (#), individual animal” value (intraperitoneally on days 5, 6, 7, 14, 21, sacrifice Day 27) was 7.354 and 9.241 and 9.589 and 11.573 and 8.182 and 10.695 and 13.978 and 10.12.

From patent publication US9790496B2, “Microrna compounds and methods for modulating MIR-21 activity” (Regulus Therapeutics, Inc., priority 2011, dated 2017)
